Test results: patent publication US5015661A, “Chromanes and their pharmaceutical compositions and methods” (Hoffmann-La Roche Inc., priority 1989, dated 1991)

Legend:
[1] = target: superoxide-dependent, iron-promoted lipid peroxidation of native rat heart cardiac lipid liposomes; experiment: Lipid peroxidation inhibition (in vitro testing of antiperoxidative agents, ANTI-OX), hypoxanthine-xanthine oxidase-Fe3+.ADP, rat cardiac liposomes, MDA equivalents; type: biochemical; details: 60 min, 37° C., screened at 1.0 μM, IC50 determined if inhibition ≥ 50%, read-out: ANTI-OX IC-50
Procedure: The test system employs hypoxanthine-xanthine oxidase (XO)-Fe^3+. ADP as the free radical generator and purified, native rat-heart membrane phosphoglyceride in Hepes-KCl buffer, pH 7.4, as the substrate. Inhibition of superoxide-dependent, iron-promoted lipid peroxidation in the linear reaction phase (after 1 hour of reaction) is measured as the net formation of thiobarbituric acid (TBA)-reactive material. In this system, the TBA-reactive material, isolated by HPLC, is exclusively (>95%) malondialdehyde (MDA), a fragmentation end-product arising from fatty acyl hydroperoxides and cyclic endoperoxides. […]
a) Isolation and purification of Rat Cardiac Lipid
Conscious male Sprague-Dawley rats (~275g) maintained on a normal rodent diet were decapitated. The hearts were rapidly removed and perfused via the aorta with ice-cold 10 mM Hepes buffer, pH 7.4. The aorta and atria were removed, and the ventricular tissue was blotted and weighed (wet weight). The hearts were minced on ice with scissors and finally homogenized (100 mg tissue/ml ice-cold buffer) for 15 seconds (3×5 seconds) with a Tekmar Tissumizer at "maximal" setting. The homogenate was filtered through 4-ply cheesecloth, and homogenate lipids were extracted and purified by a modified Bligh-Dyer procedure (M.D. Marshall and M. Kates, Biochem. Biophys. Acta 260, 558 (1972). The cardiac lipids were stored in CHCl3 under nitrogen at -20° C. […]
b) Preparation of Cardiac Liposomes
Liposomes were prepared from extracted and purified, native rat heart cardiac lipid and were used as substrate for free-radical attack. Cardiac lipid (in CHCl3) was placed in a glass flask and evaporated to dryness under nitrogen at room temperature; the flask was gently rotated during evaporation to yield a thin, dry lipid film. The lipid was taken up in 10 mM Hepes-0.145M KCl, pH 7.4, and was resuspended by indirect an aerobic sonification for 15 minutes at room temperature. The liposome suspension was used immediately. […]
c) preparation of Fe^3+ -ADP Chelate
A chelate was formed in Hepes-KCl buffer between Fe^3+ (1.0mM FeCl3, final concentration) and ADP (10mM, final concentration) at pH 7.4 with stirring at room temperature. Chelation was allowed to proceed for 90 minutes prior to use. The chelate was prepared fresh for each days experiments to ensure iron solubility, effective chelation, and valence state. […]
d) Thiobarbituric Acid Reaction or Determination of Malondialdehvde Equivalents Malondialdehyde (MDA) equivalents were measured as thiobarbituric acid (TBA)-reactive material by the following modification of published methods. The reaction mixture. prepared fresh daily, contained water: BHT ([…] BHT in absolute ethanol): TBA (1.5% TBA in 0.2M Tris, pH 7.0) in the volume ratio 1:1:5. To each 1.0 ml of peroxidation reaction assayed (see below), 0.35 ml reaction mixture was added. After thorough mixing, the tubes were incubated in an 80° C. shaking water bath for 30 minutes. After this time, the tubes were plunged into an ice water bath, and the reaction was immediately stopped with 0.5 ml ice-cold 91% TCA followed by 2.0 ml CHCl3 After centrifugation for 30 minutes at 2000 rpm in a Sorval HL-8 rotor (4° C.), the absorbance of the washed, pink upper phase was read at 532 nm. A standard curve (0.8-40.0 nmol MDA) was run with every assay. For each curve, MDA was freshly prepared by acidification of 1,1,3,3 -tetraethoxypropane with 75% TCA-2.3N HCl (0.15 ml acid mixture with 1.0 ml suitably diluted tetraethoxypropane). Computer-assisted regression analysis of the standard curve was used to quantify the molar amounts of MDA equivalents in the experimental samples. […]
e) Lipid peroxidation Reaction
Cardiac liposomes were subjected to superoxidedependent. iron-promoted peroxidation in glass vessels to avoid the well-known antioxidant effects of many common polymerizing agents used to fabricate plastic labware. […]

[2] = tested on: arachidonic acid-induced mouse ear edema; experiment: Mouse ear edema test (in vivo), arachidonic acid-induced; details: 1 mg topical, CD-1 male mice, 0.5 mg arachidonic acid 0.5 or 4 hours later, ear biopsy weight after 1 hour, read-out: EAR EDEMA % INHIB. 1 mg
Procedure: MOUSE EAR EDEMA TEST (IN VIVO)
In this animal model system, the application of arachidonic acid to the ear results in the biosynthesis of the metabolic products […]-6,8,11,14-eicosatetraenoic acid (5-HETE), leukotriene B4 (LTB4), leukotriene C4 (LTC4), […]-5,8,10,14-eicosatetraenoic acid (12-HETE), and prostaglandin E2 (PGE2) at the site of application, followed by the influx of neutrophils into the site and the rapid development of edema within 30 to 60 minutes (See, for instance, Young, Wagner and Spries, "Tachyphylaxis in 12-O-Tetradecanoylphorbol Acetate And Arachidonic Acid-Induced Ear Edma," J. Invest. Dermatol. 80:48 (1983) and Hames, Opas and Bonney, "Arachidonic Acid MetaboIites in Mouse Ear Edma" Advances in Inflammation Research. 11:57 (1986).
CD-1 male mice weighing 15 to 25 g were employed, and they were designated as follows: (1) Control Group, in which no arachidonic acid or test compound was to be applied, (2) Arachidonic Acid-Treated Group, in which no test compound was to be applied, and (3) Treated Group, in which the test compound was to be applied first, followed by the application of arachidonic acid.
In the case of the Group (3) animals, the test compound, dissolved in acetone, was applied to the dorsal surface of the right ear of the mouse with a 25-microliter pipette or, with the dose of the test compound being varied. After 0.5 hours in some cases and 4 hours in others, the arachidonic acid was topically applied in the same manner as above to the pretreated ear areas. In each case of arachidonic acid application, an amount of 0.5 mg dissolved in 25 microliters of acetone was used. After 1 hour, the mice were sacrificed by carbon dioxide inhalation. A 6mm-diameter standard biopsy punch was used to obtain a uniform tissue sample from the ear of each mouse so treated, and the tissue samples were weighted to the nearest 0.1 mg. The percent inhibition of ear edema formation was calculated as follows: [formula]

IC50 [1] [nM] | SMILES | inhibition in vivo at 1 mg [2] [%]
650 | Cc1c(C)c2c(c(C)c1O)CCC(C)(C#Cc1ccccc1)O2 (racemic) [Example 1, rac-3,4-Dihydro-2,5,7,8-tetramethyl-2-(phenylethynyl)-2H-1-benzopyran-6-ol] | 45
900 | Cc1c(C)c2c(c(C)c1O)CCC(C)(C#Cc1cccs1)O2 (racemic) [Example 4, rac-3,4-Dihydro-2,5,7,8-tetramethyl-2-[(2-thienyl)ethynyl]-2H-1-benzopyran-6-ol] | 61
600 | Cc1c(C)c2c(c(C)c1O)CCC(C)(C#Cc1cccnc1)O2 (racemic) [Example 14, rac-3,4-Dihydro-2,5,7,8-tetramethyl-2-[(3-pyridinyl)ethynyl]-2H-1-benzopyran-6-ol] | 20
> 1000 | Cc1c(C)c2c(c(C)c1O)CCC(C)(C#Cc1ccccn1)O2 (racemic) [Example 15, rac-3,4-Dihydro-2,5,7,8-tetramethyl1-2-[(2-pyridinyl)ethynyl]-2H-1-benzopyran-6-ol] | 18
560 | Cc1c(C)c2c(c(C)c1O)CCC(C)(C#Cc1csc3ccccc13)O2 (racemic) [Example 16, rac-[2-(Benzo[b]thiophen-3-yl)ethynyl]-3.4-dihydro-2,5,7,8-tetramethyl-2H-1-benzopyran-2H-1-benzopyran-6-ol] | 62
550 | CCCCc1ccc(C#CC2(C)CCc3c(C)c(O)c(C)c(C)c3O2)s1 (racemic) [Example 31, rac-2-[(5-Butyl-2-thienyl)ethynyl]-3,4-dihydro-2,5,7,8-tetramethyl-2H-1-benzopyran-6-ol] | 24
800 | Cc1c(C)c2c(c(C)c1O)CCC(C)(C#Cc1cccc(C(F)(F)F)c1)O2 (racemic) [Example 35, rac-2-{[3-(Trifluoromethyl)phenyl]ethynyl-3,4-dihydro-2,5,7,8-tetramethyl-2H-1-benzopyran-6-ol] | 15
480 | CC(=O)Oc1cc(C#CC2(C)CCc3c(C)c(O)c(C)c(C)c3O2)ccc1OCc1ccccc1 (racemic) [Example 41, rac-2-{[3-Acetyloxy-4-(phenylmethoxy)phenyl]ethynyl}-3,4-dihydro-2,5,7,8-tetramethyl-2H-1-benzopyran-6-ol] | 31
370 | Cc1c(C)c2c(c(C)c1O)CCC(C)(C#Cc1ccc(OCc3ccccc3)c(O)c1)O2 (racemic) [Example 43, rac-3,4-Dihydro-2-{[3-hydroxy-4-(phenylmethoxY)phenyl]-ethynyl}-2,5,7,8-tetramethyl-2H-1-benzopyran-6-ol] | 31
1000 | Cc1c(C)c2c(c(C)c1O)CCC(C)(c1cc3ccccc3o1)O2 (racemic) [Example 50 (CH; H, H, H), rac-2-(2-Benzofuranyl)-3,4-dihydro-2,5,7,8-tetramethyl-2H-1-benzopyran-6-ol] | 68
> 1000 | Cc1ccc2oc(C3(C)CCc4c(C)c(O)c(C)c(C)c4O3)cc2n1 (racemic) [Example 51, rac-3,4-Dihydro-2-(5-methylfuro[3,2[b]pyridin-2-yl)-2,5,7,8-tetramethyl-2H-1-benzopyran-6ol] | 69
950 | Cc1c(C)c2c(c(C)c1O)CCC(C)(c1cc3ncccc3o1)O2 (racemic) [Example 52, rac-3,4-Dihydro-2-(furo[3,2-b]pyridine-2-yl)-2,5,7,8-tetramethyl-2H-1-benzopyran-6-ol] | 49
600 | CCCc1c(O)c(C(C)=O)cc2cc(C3(C)CCc4c(C)c(O)c(C)c(C)c4O3)oc12 (racemic) [Example 53, rac-1-2-(3,4-Dihydro-6-hydroxy-2,5,7,8-tetramethyl-2H-1-benzopyran-2-yl)-6-hydroxy-7-propylbenzofuran-5-yl]ethanone] | 54
> 1000 | Cc1c(C)c2c(c(C)c1O)CCC(C)(CCc1cccs1)O2 (racemic) [Example 57, rac-3,4-Dihydro-2,5,7,8-tetramethyl-2-[2-(2-thienyl)ethyl]-2H-1-benzo-pyran-6-ol] | 41
700 | Cc1c(C)c2c(c(C)c1O)CCC(C)(CCc1ccccn1)O2 (racemic) [Example 58, rac-3,4-Dihydro-2,5,7,8-tetramethyl-2-[2-(2-pyridinyl)ethyl]-2H-1-benzopyran-6-ol] | 31
500 | Cc1c(C)c2c(c(C)c1O)CCC(C)(CCc1cccnc1)O2 (racemic) [Example 59, rac-3,4-Dihydro-2,5,7,8-tetramethyl-2-[2-(3-pyridinyl)ethyl]-2H-1-benzopyran-6-ol] | 48
> 1000 | Cc1c(C)c2c(c(C)c1O)CCC(C)(CCc1ccc(O)c(O)c1)O2 (racemic) [Example 61, rac-4-[2-(3,4-Dihydro-6-hydroxy-2,5,7,8-tetramethyl-2H-1-benzopyran-2-yl)ethyl]-1,2-benzenediol] | 55
800 | Cc1c(C)c2c(c(C)c1O)CC[C@](C)(C#Cc1cccs1)O2 [Example 5, (R)-3,4-Dihydro-2,5,7,8-tetramethyl-2-[(2-thienyl)ethynyl]-2H-1-benzopvran-6-ol] | 66
> 1000 | Cc1c(C)c2c(c(C)c1O)CC[C@@](C)(C#Cc1cccs1)O2 [Example 13, (S)-3,4-Dihydro-2,5,7,8-tetramethyl-2-[(2-thienyl)ethynyl]-2H-1-benzopyran-6-ol] | 32
